Results on three substances are retold here after patent EP0443899A1, “Process for synthetising oligomers of (methylbenzyl)xylene and their use as dielectric” (ELF ATOCHEM S.A., priority 1990, dated 1991).

Holding throughout (type): physicochemical
The nature of data set [1]: Breakdown voltage, alternating current 50 Hz, method 2 (ramp 1000 V/30 s, asymmetric point/disc electrodes). The arrangement: unit not given here. Particulars: 50 Hz AC, 1000V every 30 s, point ø 0,6, disc ø 39,6, mean (extreme values). From the text:
(§1) Nous avons comparé différents liquides par la mesure de leur tension de claquage en courant alternatif 50 Hz dans les 2 conditions suivantes (méthodes 1 et 2) : • 1 - rampe 2000 V/s - électrodes dissymétriques. • pointe diamètre 0,6 mm • disque à bords arrondis Rogowski, diamètre 39,6 mm • distance interélectrode = 3,2 mm • 2 - rampe 1000 V/30s - électrodes dissymétriques • pointe diamètre 0,6 mm • disque diamètre 39,6 mm • distance 3,2-10-15-20 mm

Data set [2] in a line: Crystallisation of the dielectric liquids at low temperature and on storage. Particulars: for cristallise: general description, products prepared from orthoxylene. From the text: Cristallisation du produit XXO1 de l'exemple 1, du produit XX02 de l'exemple 1, et d'un mélange de 85 % en poids de XXO1 et 15 % en poids de XX02 (voir exemple 1) qu'on appelle XX05.
On effectue les mêmes essais que dans l'exemple 3 mais avec des produits XX01 et XX02 préparés comme dans l'exemple 1 sauf qu'on utilise un mélange de 75 % d'orthoxylène et 25 % de paraxylène ou bien de 100 % d'orthoxylène.

A short description of data set [3]: Breakdown voltage, alternating current 50 Hz, method 1 (ramp 2000 V/s, asymmetric point/disc electrodes). Particulars: 50 Hz AC, point ø 0,6 mm, disc ø 39,6 mm, inter-electrode distance 3,2 mm, mean (extreme values).
Text: as §1

With (méthylbenzyl)xylène [XX01], the tension de claquage in data set [1] (inter-electrode distance 3,2 mm) is reported as 41,2 (37,7-45,3) (5); in data set [1] (inter-electrode distance 10 mm), 69,5 (65,3-75,8) (5); in data set [1] (inter-electrode distance 15 mm), 82,4 (74-89) (5); in data set [1] (inter-electrode distance 20 mm), 93,8 (90,0-105,0) (5). This substance also showed a Cristallisation in data set [2] (Example 3, products of Example 1 (from orthoxylene)) of -40 °C. Moreover, the cristallise in data set [2] is -40 °C.

As to di(méthylbenzyl)xylène, in data set [2], the cristallise entry is listed as “solide à la température ambiante”.

Turning to dodécylbenzène ramifié [DDB], the tension de claquage in data set [3] was 39,0 (34,9-44,4) (10).
